Measured values as given in PMC3773988 (Journal of medicinal chemistry, 2013).
pKi: −log10 of the molar value. Residues, ends and D or L forms follow the SMILES beside them. *: point of attachment. X1 = O=C(O)CCC(NC(=O)NC(CCCCNC(=O)CCCCCCC(=O)*)C(=O)O)C(=O)O; Acetyl(2-STrt) = O=C(CSC(c1ccccc1)(c1ccccc1)c1ccccc1)*

Each compound was assayed against PSMA (Homo sapiens, UniProt Q04609) (assay: NAALADase assay).
Type: biochemical

PSMA, sequence (Q04609 whole entry): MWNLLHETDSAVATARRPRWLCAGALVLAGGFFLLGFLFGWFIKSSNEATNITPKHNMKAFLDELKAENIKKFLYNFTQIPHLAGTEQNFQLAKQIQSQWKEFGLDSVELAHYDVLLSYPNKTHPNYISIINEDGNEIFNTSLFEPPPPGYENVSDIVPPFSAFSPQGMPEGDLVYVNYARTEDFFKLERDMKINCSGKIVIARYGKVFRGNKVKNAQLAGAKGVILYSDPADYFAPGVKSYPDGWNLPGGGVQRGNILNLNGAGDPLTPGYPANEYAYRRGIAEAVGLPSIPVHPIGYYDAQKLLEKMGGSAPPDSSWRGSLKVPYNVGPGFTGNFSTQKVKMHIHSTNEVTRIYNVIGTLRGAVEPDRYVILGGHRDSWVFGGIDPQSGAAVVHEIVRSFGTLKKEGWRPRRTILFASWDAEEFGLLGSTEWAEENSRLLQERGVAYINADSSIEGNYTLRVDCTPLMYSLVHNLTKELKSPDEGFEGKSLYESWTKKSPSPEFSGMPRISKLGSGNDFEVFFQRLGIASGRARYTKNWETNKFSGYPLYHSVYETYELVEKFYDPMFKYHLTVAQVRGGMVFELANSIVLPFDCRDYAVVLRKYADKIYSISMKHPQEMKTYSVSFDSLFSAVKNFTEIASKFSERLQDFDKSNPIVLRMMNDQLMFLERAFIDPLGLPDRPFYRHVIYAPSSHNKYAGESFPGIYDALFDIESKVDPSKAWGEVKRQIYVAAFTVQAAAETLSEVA

Row | SMILES | pKi
1 | NC(Cc1cn(CCCC[C@H](NC(=O)CCCCCCC(=O)NCCCC[C@H](NC(=O)N[C@@H](CCC(=O)O)C(=O)O)C(=O)O)C(=O)O)nn1)C(=O)O (stereo partly drawn) [Compound L8, (3S,7S,22S)-26-(4-(2-amino-2-carboxyethyl)-1H-1,2,3-triazol-1-yl)-5,13,20-trioxo-4,6,12,21-tetraazahexacosane-1,3,7,22-tetracarboxylic acid] | 8.95
2 | O=C(O)CCC(NC(=O)NC(CCCCNC(=O)CCCCCCC(=O)NC(CCCCN(CC(=O)O)Cc1ccccn1)C(=O)O)C(=O)O)C(=O)O (centres unmarked) [Compound L9, 2-[3-(1-Carboxy-5-(7-[1-carboxy-5-(carboxymethyl-pyridin-2-ylmethyl-amino)-pentylcarbamoyl]-heptanoylamino)-pentyl)-ureido]-pentanedioic acid] | 7.90
3 | O=C(O)CCC(NC(=O)NC(CCCCNC(=O)CCCCCCC(=O)NC(CCCCN(Cc1ncc[nH]1)Cc1ncc[nH]1)C(=O)O)C(=O)O)C(=O)O (centres unmarked) [Compound L10, 2-{3-[5-(7-(5-[Bis-(1H-imidazol-2-ylmethyl)-amino]-1-carboxy-pentylcarbamoyl)-heptanoylamino)-1-carboxy-pentyl]-ureido}-pentanedioic acid] | 7.79
4 | O=C(O)CCC(NC(=O)NC(CCCCNC(=O)CCCCCCC(=O)NCCCCC(NC(=O)CNC(=O)CNC(=O)CSC(c1ccccc1)(c1ccccc1)c1ccccc1)C(=O)O)C(=O)O)C(=O)O (centres unmarked) [Compound L11] | 10.52
5 | O=C(O)CCC(NC(=O)NC(CCCCNC(=O)CCCCCCC(=O)NCCCCC(NC(=O)C(Cc1ccccc1)NC(=O)CNC(=O)CNC(=O)CSC(c1ccccc1)(c1ccccc1)c1ccccc1)C(=O)O)C(=O)O)C(=O)O (centres unmarked) [Compound L12, 12-benzyl-4,7,10,13,21,28,36-heptaoxo-1,1,1-triphenyl-2-thia-5,8,11,14,20,29,35,37-octaazatetracontane-15,34,38,40-tetracarboxylic acid] ({Acetyl(2-STrt)}-GGFK(X1)-OH; configuration not given here) | 9.89
6 | O=C(O)CCC(NC(=O)NC(CCCCNC(=O)CCCCCCC(=O)NCCCCC(NC(=O)C(Cc1ccccc1)NC(=O)C(Cc1ccccc1)NC(=O)CNC(=O)CNC(=O)CSC(c1ccccc1)(c1ccccc1)c1ccccc1)C(=O)O)C(=O)O)C(=O)O (centres unmarked) [Compound L13, 12,15-dibenzyl-4,7,10,13,16,24,31,39-octaoxo-1,1,1-triphenyl-2-thia-5,8,11,14,17,23,32,38,40-nonaazatritetracontane-18,37,41,43-tetracarboxylic acid] ({Acetyl(2-STrt)}-GGFFK(X1)-OH; configuration not given here) | 8.72
7 | O=C(O)CC[C@H](NC(=O)N[C@@H](CCCCNC(=O)CCCCCCC(=O)NCCCC[C@@H](NC(=O)C(CNC(=O)CSC(c1ccccc1)(c1ccccc1)c1ccccc1)NC(=O)CSC(c1ccccc1)(c1ccccc1)c1ccccc1)C(=O)O)C(=O)O)C(=O)O (stereo partly drawn) [Compound L16, (10R, 29S ,33S)-4,8,16,23,31-pentaoxo-1,1,1-triphenyl-7-(2-(tritylthio)acetamido)-2-thia-5,9,15,24,30,32-hexaazapentatriacontane-10,29,33,35-tetracarboxylic acid] | 10.32
8 | NNc1ccc(C(=O)NCCCCC(NC(=O)CCCCCCC(=O)NCCCCC(NC(=O)NC(CCC(=O)O)C(=O)O)C(=O)O)C(=O)O)cn1 (centres unmarked) [Compound L19, 2-(3-[1-Carboxy-5-(7-(1-carboxy-5-[(6-hydrazino-pyridine-3-carbonyl)-amino]-pentylcarbamoyl)-heptanoylamino)-pentyl]-ureido)-pentanedioic acid] | 8.76
